Tests used:
Format in all cases: functional
NCI-H522 = experiment: Growth inhibition of human NCI-H522 cells after 48 hrs by sulforhodamine B assay; details: NCI-H522, 48 h
[1] = Growth inhibition of human OVCAR3 cells after 48 hrs by sulforhodamine B assay; details: OVCAR-3, 48 h
[2] = Growth inhibition of human SF295 cells at 10 uM after 48 hrs by sulforhodamine B assay; details: SF-295, 48 h, read-out: GI
[3] = Growth inhibition of human HCT15 cells after 48 hrs by sulforhodamine B assay; details: HCT-15, 48 h
MDA-MB-468 = experiment: Growth inhibition of human MDA-MB-468 cells after 48 hrs by sulforhodamine B assay; details: MDA-MB-468, 48 h
[4] = Growth inhibition of human Caki1 cells after 48 hrs by sulforhodamine B assay; details: CAKI-1, 48 h
[5] = Growth inhibition of human HOP62 cells at 10 uM after 48 hrs by sulforhodamine B assay; details: HOP-62, 48 h, read-out: GI
K562 = experiment: Growth inhibition of human K562 cells after 48 hrs by sulforhodamine B assay; details: K562, 48 h
A549 = experiment: Growth inhibition of human A549/ATCC cells at 10 uM after 48 hrs by sulforhodamine B assay; details: A549, 48 h, read-out: GI
A498 = experiment: Growth inhibition of human A498 cells after 48 hrs by sulforhodamine B assay; details: A498, 48 h
[6] = Growth inhibition of human PC3 cells at 10 uM after 48 hrs by sulforhodamine B assay; details: PC-3, 48 h, read-out: GI
[7] = Growth inhibition of human SF295 cells after 48 hrs by sulforhodamine B assay; details: SF-295, 48 h
[8] = Growth inhibition of human NCI-ADR-RES cells after 48 hrs by sulforhodamine B assay

Compound: COc1ccc(-c2nnc3n(C)c(=O)c4ccccc4n23)cc1O
- GI50 (NCI-H522): 31 nM
- GI50 [1]: 45 nM
- inhibition of growth at 10 µM [2]: 93%
- GI50 [3]: 52 nM
- GI50 (MDA-MB-468): 4330 nM
- GI50 [4]: 1220 nM
- inhibition of growth at 10 µM [5]: 90%
- GI50 (K562): 40 nM
- inhibition of growth at 10 µM (A549): 82%
- GI50 (A498): 6420 nM
- inhibition of growth at 10 µM [6]: 73%
- GI50 [7]: 1990 nM
- GI50 [8]: 62 nM
